Experimental data taken from patent publication US20260243781A1, “METHOD” (Philip Morris Products S.A., priority 2023, published 2026).

Columns and labels:
[1] = system: NHBE cells; assay: Modified GSH/GSSG-Glo assay in NHBE cells; format: cell-based, human
Description: • 1. A tissues sample is treated basolaterally in medium containing 25 μM ROS-GloTM H2O2 substrate for the desired exposure duration. • Treatment duration is not longer than 6 hours due to instability of the substrate. • 2. After treatment, 75 μL of the medium is collected for the ROS endpoint (see example 3), and the remaining cell or tissue sample transferred to new 24-well plate for the GSH/GSSG endpoint. ROS samples are stored at 4° C. for a maximum total of 6 hours taking into account the treatment duration, while GSH/GSSG samples must be processed immediately. This Specific Example Based on GSH/GSSG-GloTM Assay Kit Catalogue #[…] and Described in Technical Manual #TM344 from Promega • (A) Starting with the cell or tissue sample from point 2 of Example 1, the cell supernatant is removed. • (B) 100 μL of cold Passive lysis buffer is 1× diluted in water is added per well, to tissue/cell samples and shaken for 5 min at 300 rpm on ice. • (C) 100 μL of lysate is placed into 2 wells containing 50 μL each. • (D) In one well 1 μL of Luciferin-NT is added for quantification of total GSH. • (E) In the other well, 1 μL of Luciferin-NT and 0.5 μL of N-Ethylmaleimide (NEM) at 25 mM is added for quantification of oxidized GSSG. • (F) Both wells are incubated for 5 min shaking at 300 rpm at room temperature. • (G) 50 μL of Luciferin Generation Reagent is added per well, and both wells shaken for 1 min. • (H) Both wells are incubated for 29 min standing at room temperature. • (I) 100 μL of Luciferin detection reagent is added to both wells and they are shaken for 1 min. • (J) Both wells are incubated for 14 min. • (K) Both wells are transferred to an assay plate containing a calibration curve (suitably prepared as in the supplier's protocol). • (L) The luminescence of each well is measured with FLUOstar® Omega “GSHG assay” In this example oxidative stress was simulated by adding menadione sodium bisulfite to four samples. Four of the samples had 10 μM, 30 μM, 100 μM or 300 μM of menadione sodium bisulfite respectively added to the medium to simulate increasing levels of oxidative stress. The fifth sample was used as the vehicle control wherein on the medium and 0.3% water were added. The assays were performed in triplicate on NHBE cells. In the top row of FIG. 9, the same experiments of the invention as per Example 6 (shown top row of FIG. 8) were carried out. In addition, the ROS endpoint analysis method of the invention (as per Example 5 above) was carried out on the same samples at the 1 hour and 2 hour time points (shown in FIG. 9, bottom row). A star (*) indicates significance P<0.05 paired t-test. Two stars (**) indicates significance P<0.01 paired t-test. The cells used where an NHBE cell line exposed to water-soluble menadione sodium bisulfite.

[2] = system: NHBE cells; assay: ROS-Glo H2O2 assay (non-lytic) in NHBE cells; format: cell-based, human
Description: • 1. A tissues sample is treated basolaterally in medium containing 25 μM ROS-GloTM H2O2 substrate for the desired exposure duration. • Treatment duration is not longer than 6 hours due to instability of the substrate. • 2. After treatment, 75 μL of the medium is collected for the ROS endpoint (see example 3), and the remaining cell or tissue sample transferred to new 24-well plate for the GSH/GSSG endpoint. ROS samples are stored at 4° C. for a maximum total of 6 hours taking into account the treatment duration, while GSH/GSSG samples must be processed immediately. This Specific Example is Based on Non-Lytic Variant of ROS-GloTM H2O2 Assay Kit Catalogue #[…] and Described in Technical Manual TM391 from Promega. • (a) 75 μL of sample medium collected in Example 1, step 2, and 75 μL of compound interference controls are added to an assay plate. • (b) 10 wells, 100 μL per well are added to the assay plate for standard curve calibration. • (c) 75 μL of freshly prepared ROS-Glo Detection SolutionTM is added to all samples and compound interference control wells. D-cysteine is added on top if not present in reagents, preferably 0.01 to 20 mM, preferably 0.1 to 10 mM. • (d) 100 μL of ROS-Glo Detection SolutionTM is added to standard curve wells. • (e) The assay plate is shaken for 1 minute at room temperature on a plate shaker set at 300 rpm. • (f) The plate is incubated for 20 minutes standing at room temperature. • (g) Luminescence is measured with FLUOstar® Omega using the pre-defined “ROS-GloTM H2O2 assay”. In this example oxidative stress was simulated by adding menadione sodium bisulfite to four samples. Four of the samples had 10 μM, 30 μM, 100 μM or 300 μM of menadione sodium bisulfite respectively added to the medium to simulate increasing levels of oxidative stress. The fifth sample was used as the vehicle control wherein on the medium and 0.3% water were added. The assays were performed in triplicate on NHBE cells. In the top row of FIG. 9, the same experiments of the invention as per Example 6 (shown top row of FIG. 8) were carried out. […]

[3] = system: 3D bronchial cultures; assay: Modified GSH/GSSG-Glo assay in 3D bronchial cultures; format: cell-based, human
Description: (§1) • 1. A tissues sample is treated basolaterally in medium containing 25 μM ROS-Glo™ H2O2 substrate for the desired exposure duration. • Treatment duration is not longer than 6 hours due to instability of the substrate. • 2. After treatment, 75 μL of the medium is collected for the ROS endpoint (see example 3), and the remaining cell or tissue sample transferred to new 24-well plate for the GSH/GSSG endpoint. ROS samples are stored at 4° C. for a maximum total of 6 hours taking into account the treatment duration, while GSH/GSSG samples must be processed immediately.
This Specific Example Based on GSH/GSSG-Glo™ Assay Kit Catalogue #V6611 and V6612 and Described in Technical Manual #TM344 from Promega • (A) Starting with the cell or tissue sample from point 2 of Example 1, the cell supernatant is removed. • (B) 100 μL of cold Passive lysis buffer is 1× diluted in water is added per well, to tissue/cell samples and shaken for 5 min at 300 rpm on ice. • (C) 100 μL of lysate is placed into 2 wells containing 50 μL each. • (D) In one well 1 μL of Luciferin-NT is added for quantification of total GSH. • (E) In the other well, 1 μL of Luciferin-NT and 0.5 μL of N-Ethylmaleimide (NEM) at 25 mM is added for quantification of oxidized GSSG. • (F) Both wells are incubated for 5 min shaking at 300 rpm at room temperature. • (G) 50 μL of Luciferin Generation Reagent is added per well, and both wells shaken for 1 min. • (H) Both wells are incubated for 29 min standing at room temperature. • (I) 100 μL of Luciferin detection reagent is added to both wells and they are shaken for 1 min. • (J) Both wells are incubated for 14 min. • (K) Both wells are transferred to an assay plate containing a calibration curve (suitably prepared as in the supplier's protocol). • (L) The luminescence of each well is measured with FLUOstar® Omega “GSHG assay”
(§2) A 3D bronchial culture can be provided by isolating bronchial cells or using commercially available primary cells, culturing them and seeding them on a 3D framework. Suitable cultures include MucilAir™. MucilAir™ is an in vitro cell model of the human airway eplithelium cultures at the air liquid interface and available from Epithelix (for example, here https://www.epithelix.com/products/mucilair).
(§3) FIG. 11 is a further schematic showing how GSH/GSSG and ROS assays (as detailed in Example 4 and Example 5 above) can be adapted to 3D bronchial cultures. In this experiment, three 3D cultures were used. […] The GSH/GSSG-Glo assays were performed on samples from the cell culture within the culture insert and the ROS-Glo assays were performed on the basolateral medium. This was performed in triplicate.

[4] = system: 3D bronchial cultures; assay: ROS-Glo H2O2 assay on basolateral medium of 3D bronchial cultures; format: cell-based, human
Description: as §1
(§4) This Specific Example is Based on Non-Lytic Variant of ROS-Glo™ H2O2 Assay Kit Catalogue #G8820 and G8821 and Described in Technical Manual TM391 from Promega. • (a) 75 μL of sample medium collected in Example 1, step 2, and 75 μL of compound interference controls are added to an assay plate. • (b) 10 wells, 100 μL per well are added to the assay plate for standard curve calibration. • (c) 75 μL of freshly prepared ROS-Glo Detection Solution™ is added to all samples and compound interference control wells.
as §2, §3

[5] = system: NHBE cells; assay: Cell viability / cytotoxicity (ATP levels) in NHBE cells; format: cell-based, human
[6] = system: 3D bronchial cultures; assay: Cell viability in 3D bronchial cultures; format: cell-based, human; conditions: lipid-soluble menadione
[7] = system: A549 lung cell line; assay: GSH/GSSG assay in A549 lung cell line; format: cell-based, human; conditions: A549, dose-dependent
Description: This Specific Example Based on GSH/GSSG-Glo™ Assay Kit Catalogue #V6611 and V6612 and Described in Technical Manual #TM344 from Promega • (A) Starting with the cell or tissue sample from point 2 of Example 1, the cell supernatant is removed. • (B) 100 μL of cold Passive lysis buffer is 1× diluted in water is added per well, to tissue/cell samples and shaken for 5 min at 300 rpm on ice. • (C) 100 μL of lysate is placed into 2 wells containing 50 μL each. • (D) In one well 1 μL of Luciferin-NT is added for quantification of total GSH. • (E) In the other well, 1 μL of Luciferin-NT and 0.5 μL of N-Ethylmaleimide (NEM) at 25 mM is added for quantification of oxidized GSSG. • (F) Both wells are incubated for 5 min shaking at 300 rpm at room temperature. • (G) 50 μL of Luciferin Generation Reagent is added per well, and both wells shaken for 1 min. • (H) Both wells are incubated for 29 min standing at room temperature. • (I) 100 μL of Luciferin detection reagent is added to both wells and they are shaken for 1 min. • (J) Both wells are incubated for 14 min. • (K) Both wells are transferred to an assay plate containing a calibration curve (suitably prepared as in the supplier's protocol). • (L) The luminescence of each well is measured with FLUOstar® Omega “GSHG assay” […]

[8] = system: A549 lung cell line; assay: ROS-Glo H2O2 assay in A549 lung cell line; format: cell-based, human; conditions: A549, dose-dependent
Description: as §4
In this experiment, an A549 lung cell line was exposed to lipid-soluble menadione (Vitamin K3) to simulate oxidative stress.

[9] = system: A549 lung cell line; assay: Cell viability in A549 lung cell line; format: cell-based, human; conditions: A549, two highest concentrations
[10] = system: HeLa; conditions: HeLa, 5,000 cells/well, menadione-treated; cited from earlier work
[11] = system: HepG2; conditions: HepG2, 10,000 cells/well, menadione-treated; cited from earlier work
[12] = system: HepaRG ®; conditions: HepaRG, 50,000 cells/well, menadione-treated; cited from earlier work
[13] = system: A549; conditions: A549, 5,000 cells/well, menadione-treated; cited from earlier work
[14] = system: Rat hepatocytes; conditions: Rat hepatocytes, 50,000 cells/well, menadione-treated; cited from earlier work
[15] = 30 µM, 1 hour and 2 hour time points
[16] = higher dose (300 μM) versus lower dose, 3D bronchial culture
[17] = higher dose (300 μM), 3D bronchial culture
[18] = lower dose (100 μM), 3D bronchial culture
[19] = 3D bronchial cultures, lipid-soluble menadione, dose-dependent

CC1(S(=O)(=O)[O-])CC(=O)c2ccccc2C1=O.[Na+] (stereo not shown) [Menadione sodium bisulfite, menadione sodium bisulfite]
GSH/GSSG [1, 15]: no changes in GSH/GSSG
ROS [2, 15]: increased ROS
GSSG [3, 16]: no further impact
GSH [3, 17]: further decreased
GSH/GSSG [3, 17]: further decreased
GSH/GSSG [3, 18]: no effect on GSH/GSSG
ROS [4, 16]: no further impact
ROS [4, 18]: significantly increased ROS

CC1=CC(=O)c2ccccc2C1=O [Menadione]
GSH/GSSG ([1]; 100 μM): decreased GSH/GSSG
GSH/GSSG ([1]; 300 μM (highest dose)): lowest GSH/GSSG
GSH/GSSG reduction ([1]; 300 μM (highest dose)): 6 fold
ROS ([2]; 100 μM): increased ROS
ROS ([2]; 300 μM (highest dose)): highest ROS
cell viability ([5]; 300 μM (highest dose)): decreased cell viability
oxidative stress and cytotoxicity (as determined by ATP levels) with longer exposure ([5]; 2 hour versus 1 hour time point): more oxidative stress and cytotoxicity
GSH [3, 19]: dose-dependent decrease
GSH/GSSG [3, 19]: dose-dependent decrease
GSSG [3, 19]: increase
ROS [4, 19]: increase
cell viability [6]: no effects on cell viability
GSH/GSSG [7]: decrease in GSH/GSSG
ROS [8]: increase in ROS
cell viability [9]: effects on cell viability at the two highest concentrations
Ratio GSH/GSSG [10]: 2.2
Ratio GSH/GSSG [11]: 2.2
Ratio GSH/GSSG [12]: 2.5
Ratio GSH/GSSG [13]: 10.9
Ratio GSH/GSSG [14]: 1.1
